System: scopolamine-induced amnesia
Experiment: Y-shaped maze test of spontaneous alternation behavior, prophylactic activity against scopolamine-induced amnesia
Assay type: in vivo, mice (ddY strain)
Conditions: male ddY mice; 5000 nmol/kg weight once orally 60 minutes before Y-shaped maze test; scopolamine 1 mg/kg weight subcutaneously 30 minutes before test
Experimental: Male mice (n=15) of the ddY strain (approximately 7-week old) were used, and they took food and water ad lib. Test substances used were 500 nmol/kg weight (230 ug/kg weight) and 5000 nmol/kg weight (2300 ug/kg weight) of Val-Pro-Pro-Phe (SEQ ID NO: 2). The test substances were administered to the mice once orally 60 minutes before the execution of a Y-shaped maze test for evaluation of spontaneous alternation behavior. Further, 30 minutes before the execution of the Y-shaped maze test, 1 mg/kg weight of scopolamine was subcutaneously administered on the backs of the mice in order to induce brain dysfunction (dysmnesia and/or cognitive impairment) in the mice. In the Y-shaped maze test, a Y-shaped maze was used as an experimental device, in which the length of each arm was 40 cm, the height of the wall was 12 cm, the width of the floor was 3 cm, and the width of the upper part was 10 cm, and three arms were connected to each other at an angle of 120 degrees. […] The sequence of the arms each of the mice entered was recorded. The number of entries by each of the mice for each of the arms during the measurement time was counted to be the total number of entries. […] The percentage of spontaneous alternation behavior was calculated by dividing the number of spontaneous alternation behavior by a number obtained by subtracting 2 from the total number of entries, and multiplying a resultant number by 100. […] The measured values were expressed in the form of mean±standard error for each group. A significant difference between the control group and the scopolamine control group was calculated using Student's t-test. Further, a significant difference between the scopolamine control group and the VPPF-administered group was calculated using Dunnett's multiple comparison test after one-way analysis of variance.
Male mice (n=15) of the ddY strain (approximately 7-week old) were used, and they took food and water ad lib. […] The arms each of the mice entered were sequentially recorded. […]

Substance | prophylactic activity against amnesia (percentage of spontaneous alternation behavior)
Asn-Ile-Pro-Pro-Leu (NIPPL; Synthetic functional peptide) | had a prophylactic activity against amnesia
Ile-Pro-Pro-Leu (IPPL; Synthetic functional peptide) | had a prophylactic activity against amnesia
Val-Pro-Pro-Phe (VPPF; Synthetic functional peptide) | had a prophylactic activity against amnesia

Reference: patent US8916524B2, “Composition for improving brain function and method for improving brain function” (Calpis Co., Ltd., priority 2010, dated 2014)
